The source of these data is PubChem BioAssay AID651850 (Broad Institute, 2012).

Each structure is given as a SMILES string. The source made the active and inactive calls. No rule for the calls is given here.

Tested on in one assay: not listed separately
Kind of assay: M. tuberculosis log-phase growth inhibition, dose response, dry powder samples (AID 651850). As to conditions: M. tuberculosis log-phase growth, CFU enumeration.
For `Clc1ccc(-c2nnc(SCc3cn(-c4ccccc4)nn3)o2)cc1`, the result was inactive.

For `c1ccc(Cn2cc(CSc3nnc(C4CCC4)o3)nn2)cc1`, the result was inactive.

For the compound `Fc1ccc(Cn2cc(CSc3nnc(C4CCC4)o3)nn2)cc1`, the outcome was inactive.

Take `Clc1ccc(-c2nnc(SCc3cn(Cc4ccccc4)nn3)o2)cc1`: the result was inactive.

For `Fc1ccc(Cn2cc(CSc3nnc(-c4ccc(Cl)cc4)o3)nn2)cc1`, the outcome was inactive.

Take `c1ccc(Cn2cc(CSc3nnc(-c4ccccc4)o3)nn2)cc1`: the result was inactive.

With `Fc1ccc(Cn2cc(CSc3nnc(-c4ccc(F)cc4)o3)nn2)cc1`, the result was inactive.

Consider `Fc1ccc(Cn2cc(CSc3nnc(C4CCCC4)o3)nn2)cc1`, for which the result was inactive.

Regarding `Fc1ccc(-c2nnc(SCc3cn(-c4ccccc4)nn3)o2)cc1`, the outcome was inactive.

A further assay concerns M. tuberculosis log-phase growth, CFU enumeration. The assay is described as above.
Details: not given
With `c1ccc(CSc2nnc(-c3ccccc3)o2)cc1`, the IC90 was 62 µM.

`c1ccc(Cn2cc(CSc3nnc(C4CCCC4)o3)nn2)cc1`: the IC90 is 62 µM.

Take `Clc1ccc(-c2nnc(SCc3cn(Cc4ccccc4)nn3)o2)cc1`: the IC90 is 125 µM.

With `c1ccc(-c2nnc(SCc3cscn3)o2)cc1`, the IC90 was 62 µM.

As for `Fc1ccc(-c2nnc(SCc3cn(Cc4ccccc4)nn3)o2)cc1`, the IC90 is 62 µM.

`COc1cccc(-c2nnc(SCc3ccccn3)o2)c1`: the IC90 was 62 µM.

As to `Brc1cccc(-c2nnc(SCc3ccccn3)o2)c1`, the concentration for an effect of 90% (IC90) is 62 µM.

As for `c1ccc(-c2nnc(SCc3ccccn3)o2)cc1`, the IC90 was less than 31 µM.

Regarding `c1ccc(CSc2nnc(C3CCCC3)o2)cc1`, the IC90 is 250 µM.

Regarding `CC(C)c1nnc(SCc2ccccc2)o1`, the IC90 was 125 µM.

For the compound `c1ccc(-n2cc(CSc3nnc(C4CCCC4)o3)nn2)cc1`, the IC90 was 62 µM.

With `O=S(Cc1ccccc1)c1nnc(-c2ccccc2)o1` (stereo not drawn), the IC90 is less than 31 µM.

In the case of `COc1ccc(CSc2nnc(-c3ccc(Cl)cc3)o2)nc1`, the IC90 was 16 µM.

Take `c1ccc(-n2cc(CSc3nnc(C4CCC4)o3)nn2)cc1`: the IC90 was 62 µM.

For `O=S(Cc1cn(Cc2ccccc2)nn1)c1nnc(-c2ccc(Cl)cc2)o1` (stereo not drawn), the IC90 is 62 µM.

As to `Brc1ccc(-c2nnc(SCc3ccccn3)o2)cc1`, the IC90 was 62 µM.

Take `Fc1ccc(-c2nnc(SCc3ccccn3)o2)cc1`: the 90% effect concentration (IC90) is 16 µM.

Regarding `c1ccc(-c2nnc(SCCN3CCN(c4ccccc4)CC3)o2)cc1`, the IC90 was 62 µM.

For `Fc1cccc(-c2nnc(SCc3ccccn3)o2)c1`, the IC90 was 31 µM.
